Experimental data as given in patent US8993310B2, “Device for diagnosis of physiologic status and/or selection of the best spermatozoa of a semen sample based on chemotaxis, and procedure of use thereof” (Consejo Nacional de Investigaciones Cientificas y Technicas …, priority 2009, dated 2015).
“Also recorded” adds a separate entry of the source.

Test system: spermatozoa
Assay: Sperm separation by chemotaxis in the two-compartment device (aggregation in compartment 1a)
Assay type: cell-based
Settings: for percentage of aggregated spermatozoa in compartment 1a by chemotaxis (net, Δ vs control): 6 million S/ml, 10 pM progesterone, 20 minutes incubation
Experimental: Separation of mobile spermatozoa (S) of seminal plasma is done by the Percoll technique. A volume of about 2 ml semen is used, which is deposited on 1 ml Percoll gradient (lower layer: 500 μl Percoll 95%, upper layer: 500 μl of Percoll 47.5%, in HAM-F10). After centrifuging 20 minutes at 1800 rpm, the cell pellet is recovered and washed twice by centrifugation for 7 min at 1000 rpm, with HAM-F10 medium. Finally, the recovered pellet is suspended in 1 ml of HAM-F10 medium, cell count is performed in a cell count chamber, and volume is adjusted in order to obtain a concentration of 8 million S/ml. S capability is increased in HAM-F10 medium supplemented with 1% human serum albumin (HSA) for 4 hours a 37° C., under 5% CO2 atmosphere in air.
When capacitation time is finished, S concentration is adjusted in order to obtain 6 million mobile S/ml, and two devices are set up as described in the preceding section (FIGS. 1-3), one without attractant as negative control, and the other with progesterone as attractant.
To set up the device control, a device as described in FIGS. 1 to 3, proceed as follows: 1) the plug is placed in compartment 1a, where culture medium (HAM-F10/1%HSA) is placed, 2) the bridge linking both compartments is filled with culture medium, 3) S suspension is placed in compartment 1b (130 μl of the solution of 6 million mobile S/ml) and this compartment is closed with the plug, 4) compartment 1a is unplugged and filled with culture medium (130 μl).
For device set up with the attractant, another device is prepared as described in FIGS. 1 to 3, like the device control but replacing culture medium with a 10 pM Progesterone solution diluted in culture medium. Once both devices are set up (“Control” and “Attractant”), they are incubated for 20 minutes at 37° C., under 5% CO2 atmosphere in air.
To take the device apart and recover the best spermatozoa, the compartment solution (1a) containing culture medium or attractant is removed. On the spermatozoa suspension removed from compartment 1a of both devices (control and attractant) cell count is performed in a cell count chamber. Then the difference in percentage of S found in each of these two compartments is determined, which enables to value net percentage of S migrating to the attractant-containing compartment (“Δ”).

## C[C@H]1O[C@@H](n2cnc3c(N)ncnc32)C[C@@H]1O [ddAdo]
Cells pre-treated, progesterone as attractant (FIGS. 8 and 9)
  sperm aggregation in compartment 1a by chemotaxis when cells were previously treated with inhibitor or antibody: no sperm aggregation due to chemotaxis is seen

## CC(=O)[C@H]1CC[C@H]2[C@@H]3CCC4=CC(=O)CC[C@]4(C)[C@H]3CC[C@]12C [progesterone]
  percentage of aggregated spermatozoa in compartment 1a by chemotaxis (net, Δ vs control): about 10%
Listed as Progesterone
  percentage of aggregated spermatozoa in compartment 1a by chemotaxis (net, Δ vs control): 9±0.4%
Decreasing gradient of attractant compared with increasing gradient (FIG. 10)
  sperm aggregation in a decreasing versus an increasing gradient of progesterone: similar
Equal concentration of hormone in both compartments 1a and 1b (FIG. 10)
  sperm aggregation in the absence of gradient of progesterone: sperm aggregation is reduced; also recorded: no sperm aggregation observed
